In publication PMC7956476, “Quinoline Functionalized Schiff Base Silver (I) Complexes: Interactions with Biomolecules and In Vitro Cytotoxicity, Antioxidant and Antimicrobial Activities” (Molecules, 2021):

Experiments:
[1] = Ferric reducing antioxidant power (FRAP) assay; format: biochemical; settings: done in triplicate
[2] = system: Escherichia coli ATCC 25922; assay: Minimum inhibitory concentration (MIC), spotting on Müeller–Hinton agar; format: cell-based; settings: Gram − Ve; E. coli; 37 °C, 18 h
[3] = system: Staphylococcus aureus ATCC 700699 (methicillin-resistant); assay: as above; format: cell-based; settings: Gram + Ve; methicillin-resistant S. aureus; 37 °C, 18 h
[4] = system: Staphylococcus aureus ATCC 25923; assay: as above; format: cell-based; settings: Gram + Ve; S. aureus; 37 °C, 18 h
[5] = system: Salmonella typhimurium ATCC 14026; assay: as above; format: cell-based; settings: Gram − Ve; S. typhi; 37 °C, 18 h
[6] = system: neuronal cancer cell line (SHSY5Y); assay: Cytotoxicity assay (CellTiter 96 AQueous One Solution, 72 h); format: cell-based, human; settings: EC50 in HEK293 over EC50 in SHSY5Y
Procedure: (§1) In vitro cell viability with cultured cells is a method commonly used for cytotoxicity activities of potential anticancer compounds due to reduced cost speed, and potential for automation, and tests using human cells other than some in vivo animal tests. […] The cytotoxicity assay was conducted as per the standard method and as described by Abrahams et al. 2018 [111]. […] The plate was then incubated for 72 h at 37 °C and 5% CO2. To each well, 20 µL CellTiter 96 AQueous One Solution (Promega, Madison, WI, USA) was added and the plates were incubated for 4 h as previously described. Thereafter, absorbance was read at 490 nm on a multiplate reader (Molecular Devices, San Jose, CA, USA). […] The values recorded are averages of at least three separate experiments (n = 3).

[7] = system: breast cancer cell line (MDA-MB231); assay: as above; format: cell-based, human; settings: EC50 in HEK293 over EC50 in MDA-MB231
Procedure: as §1

[8] = system: cervical cancer cell line (HELA); assay: as above; format: cell-based, human; settings: EC50 in HEK293 over EC50 in HELA
Procedure: as §1

calf thymus DNA (CT-DNA) = assay: CT-DNA electronic absorption titration (Wolfe–Shimer); format: binding; settings: intrinsic binding constant, absorption titration, PBS pH 7.2

Compound | Antioxidant (IC50 mg/mL) FRAP [1] | Minimum inhibitory concentration, EC [2] | Minimum inhibitory concentration, MRSA [3] | Minimum inhibitory concentration, SA [4] | Minimum inhibitory concentration, ST [5] | Selectivity Index (SI) SHSY5Y [6] | Selectivity Index (SI) MDA-MB231 [7] | Selectivity Index (SI) HELA [8] | CT-DNA-Cmp. Kb (M^−1) × 10^5 (calf thymus DNA (CT-DNA))
[Ag+].[O-][Cl+3]([O-])([O-])[O-].c1ccc2nc(-c3nc4ccccc4s3)ccc2c1.c1ccc2nc(-c3nc4ccccc4s3)ccc2c1 [Complex Q7, [Ag(L2)2]ClO4] | 1.13 ± 0.044 mg/mL | 25 µg/mL | 50 µg/mL | 1.6 µg/mL | 50 µg/mL | 3.30 | 2.40 | 4.39 | 15.0 (M^−1) × 10^5
Cc1ccc(N=Cc2ccc3ccccc3n2)cc1.Cc1ccc(N=Cc2ccc3ccccc3n2)cc1.[Ag+].[O-][Cl+3]([O-])([O-])[O-] [Complex Q9, [Ag(L4)2]ClO4] | 1.62 ± 0.078 mg/mL | 12.5 µg/mL | 1000 µg/mL | 50 µg/mL | 50 µg/mL | 2.12 | 2.57 | 4.48 | 5.00 (M^−1) × 10^5
